Measured values from PubChem BioAssay (NCI).
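Step 1: Grow cells in 96-well plates. Step 2: Expose to compound for 48 hours at 5 concentrations. Step 3: Interpolate endpoints linearly; if unreached, use highest concentration. GI50 marks 50% less growth. TGI: total growth inhibition.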

Assays:
Experiment in all cases: NCI tumour cell line growth inhibition, 48 h
[1] = test system: 786-0 renal
[2] = test system: A498 renal
[3] = test system: A549 NSCLC
[4] = test system: ACHN renal
[5] = test system: BT-549 breast
[6] = test system: CAKI-1 renal
[7] = test system: CCRF-CEM leukemia
[8] = test system: COLO 205 colon
[9] = test system: DU-145 prostate
[10] = test system: EKVX NSCLC
[11] = test system: HCC-2998 colon
[12] = test system: HCT-116 colon
[13] = test system: HCT-15 colon
[14] = test system: HL-60(TB) leukemia
[15] = test system: HOP-62 NSCLC
[16] = test system: HOP-92 NSCLC
[17] = test system: HS 578T breast
[18] = test system: HT29 colon
[19] = test system: IGROV1 ovarian
[20] = test system: K-562 leukemia
[21] = test system: KM12 colon
[22] = test system: LOX IMVI melanoma
[23] = test system: M14 melanoma
[24] = test system: MALME-3M melanoma
[25] = test system: MCF7 breast
[26] = test system: MDA-MB-231 breast
[27] = test system: MDA-MB-435
[28] = test system: MDA-MB-468 breast
[29] = test system: MOLT-4 leukemia
[30] = test system: NCI-H226 lung
[31] = test system: NCI-H23 lung
[32] = test system: NCI-H460 lung
[33] = test system: NCI-H522 lung
[34] = test system: OVCAR-3 ovarian
[35] = test system: OVCAR-4 ovarian
[36] = test system: OVCAR-5 ovarian
[37] = test system: OVCAR-8 ovarian
[38] = test system: PC-3 prostate
[39] = test system: RPMI-8226 leukemia
[40] = test system: RXF 393 renal
[41] = test system: SF-268 CNS
[42] = test system: SF-295 CNS
[43] = test system: SF-539 CNS
[44] = test system: SK-MEL-2 melanoma
[45] = test system: SK-MEL-28 melanoma
[46] = test system: SK-MEL-5 melanoma
[47] = test system: SK-OV-3 ovarian
[48] = test system: SN12C renal
[49] = test system: SNB-19 CNS
[50] = test system: SNB-75 CNS
[51] = test system: SR leukemia
[52] = test system: SW-620 colon
[53] = test system: T-47D breast
[54] = test system: TK-10 renal
[55] = test system: U251 CNS
[56] = test system: UACC-257 melanoma
[57] = test system: UACC-62 melanoma
[58] = test system: UO-31 renal

`O=c1[nH]n(C(=S)N/N=C/c2ccccc2Cl)c(=O)c2ccccc12` was tested. Which GI50 [1] did it give?
Its GI50 is 4.43 µM.

What about the TGI [1] of the same molecule?
Its TGI is 16 µM.

And the GI50 [2]?
Its GI50 is 3.66 µM.

And the TGI [2]?
Its TGI is 12.1 µM.

And the GI50 [3]?
The GI50 was 2.93 µM.

What about the TGI [3] of the same molecule?
Its TGI is 10.7 µM.

What about the GI50 [4] of the same molecule?
Its GI50 is 3.64 µM.

And the TGI [4]?
Its TGI is 12.8 µM.

And the GI50 [5]?
The GI50 was 3.11 µM.

And the TGI [5]?
Its TGI is 11.9 µM.

What about the GI50 [6] of the same molecule?
Its GI50 is 3.7 µM.

What about the TGI [6] of the same molecule?
The TGI was 15.5 µM.

What about the GI50 [7] of the same molecule?
Its GI50 is 2.29 µM.

What about the TGI [7] of the same molecule?
Its TGI is 7.56 µM.

What about the GI50 [8] of the same molecule?
Its GI50 is 2.82 µM.

What about the TGI [8] of the same molecule?
Its TGI is 7.73 µM.

What about the GI50 [9] of the same molecule?
The GI50 was 3.84 µM.

What about the TGI [9] of the same molecule?
Its TGI is 14.5 µM.

And the GI50 [10]?
The GI50 was 2.73 µM.

What about the TGI [10] of the same molecule?
The TGI was 10.8 µM.

What about the GI50 [11] of the same molecule?
Its GI50 is 2.27 µM.

What about the TGI [11] of the same molecule?
The TGI was 4.79 µM.

And the GI50 [12]?
The GI50 was 3.44 µM.

What about the TGI [12] of the same molecule?
The TGI was 14.1 µM.

What about the GI50 [13] of the same molecule?
Its GI50 is 2.24 µM.

And the TGI [13]?
The TGI was 6.36 µM.

What about the GI50 [14] of the same molecule?
The GI50 was 1.65 µM.

And the TGI [14]?
Its TGI is 4.5 µM.

What about the GI50 [15] of the same molecule?
Its GI50 is 3.14 µM.

And the TGI [15]?
The TGI was 10.8 µM.

What about the GI50 [16] of the same molecule?
Its GI50 is 2.41 µM.

And the TGI [16]?
Its TGI is 7.29 µM.

What about the GI50 [17] of the same molecule?
Its GI50 is 2.65 µM.

And the TGI [17]?
Its TGI is 9.55 µM.

What about the GI50 [18] of the same molecule?
Its GI50 is 3.96 µM.

And the TGI [18]?
Its TGI is 13.2 µM.

What about the GI50 [19] of the same molecule?
Its GI50 is 3.42 µM.

And the TGI [19]?
Its TGI is 11.5 µM.

And the GI50 [20]?
The GI50 was 2.62 µM.

What about the TGI [20] of the same molecule?
Its TGI is 10.6 µM.

What about the GI50 [21] of the same molecule?
The GI50 was 3.34 µM.

What about the TGI [21] of the same molecule?
The TGI was 12.5 µM.

And the GI50 [22]?
Its GI50 is 2.87 µM.

What about the TGI [22] of the same molecule?
The TGI was 10.4 µM.

And the GI50 [23]?
Its GI50 is 2.96 µM.

What about the TGI [23] of the same molecule?
The TGI was 11.4 µM.

And the GI50 [24]?
Its GI50 is 5.64 µM.

What about the TGI [24] of the same molecule?
Its TGI is 18.5 µM.

What about the GI50 [25] of the same molecule?
The GI50 was 2.4 µM.

What about the TGI [25] of the same molecule?
The TGI was 11.3 µM.

And the GI50 [26]?
The GI50 was 2.99 µM.

And the TGI [26]?
The TGI was 8.61 µM.

What about the GI50 [27] of the same molecule?
The GI50 was 2.88 µM.

What about the TGI [27] of the same molecule?
The TGI was 12.8 µM.

And the GI50 [28]?
Its GI50 is 1.83 µM.

And the TGI [28]?
The TGI was 4.46 µM.

What about the GI50 [29] of the same molecule?
Its GI50 is 1.82 µM.

And the TGI [29]?
Its TGI is 5.16 µM.

And the GI50 [30]?
The GI50 was 2.88 µM.

And the TGI [30]?
The TGI was 8.54 µM.

What about the GI50 [31] of the same molecule?
Its GI50 is 1.97 µM.

What about the TGI [31] of the same molecule?
The TGI was 4.56 µM.

What about the GI50 [32] of the same molecule?
The GI50 was 2.11 µM.

And the TGI [32]?
Its TGI is 5.85 µM.

What about the GI50 [33] of the same molecule?
Its GI50 is 2.06 µM.

And the TGI [33]?
The TGI was 5.4 µM.

What about the GI50 [34] of the same molecule?
Its GI50 is 3.36 µM.

What about the TGI [34] of the same molecule?
The TGI was 12.8 µM.

What about the GI50 [35] of the same molecule?
The GI50 was 4.46 µM.

And the TGI [35]?
Its TGI is 16.6 µM.

What about the GI50 [36] of the same molecule?
The GI50 was 3.56 µM.

What about the TGI [36] of the same molecule?
Its TGI is 10.6 µM.

And the GI50 [37]?
The GI50 was 2.08 µM.

And the TGI [37]?
The TGI was 5.48 µM.

And the GI50 [38]?
Its GI50 is 4.89 µM.

And the TGI [38]?
Its TGI is 17.9 µM.

What about the GI50 [39] of the same molecule?
Its GI50 is 2.44 µM.

And the TGI [39]?
The TGI was 7.83 µM.

And the GI50 [40]?
Its GI50 is 2.58 µM.

What about the TGI [40] of the same molecule?
Its TGI is 7.71 µM.

What about the GI50 [41] of the same molecule?
The GI50 was 3.36 µM.

And the TGI [41]?
Its TGI is 13.8 µM.

And the GI50 [42]?
The GI50 was 2.48 µM.

What about the TGI [42] of the same molecule?
Its TGI is 6.79 µM.

And the GI50 [43]?
Its GI50 is 2.56 µM.

And the TGI [43]?
The TGI was 6.26 µM.

What about the GI50 [44] of the same molecule?
The GI50 was 1.85 µM.

And the TGI [44]?
Its TGI is 4.19 µM.

What about the GI50 [45] of the same molecule?
The GI50 was 4.6 µM.

And the TGI [45]?
Its TGI is 16.1 µM.

And the GI50 [46]?
The GI50 was 3.03 µM.

What about the TGI [46] of the same molecule?
The TGI was 11.9 µM.

What about the GI50 [47] of the same molecule?
The GI50 was 4.82 µM.

What about the TGI [47] of the same molecule?
Its TGI is 16.1 µM.

And the GI50 [48]?
The GI50 was 3.01 µM.

And the TGI [48]?
The TGI was 10.1 µM.

And the GI50 [49]?
The GI50 was 3.87 µM.

And the TGI [49]?
Its TGI is 14.3 µM.

And the GI50 [50]?
Its GI50 is 2.08 µM.

What about the TGI [50] of the same molecule?
The TGI was 8.43 µM.

And the GI50 [51]?
The GI50 was 1.86 µM.

What about the TGI [51] of the same molecule?
Its TGI is 5.08 µM.

What about the GI50 [52] of the same molecule?
Its GI50 is 3.01 µM.

And the TGI [52]?
The TGI was 10.5 µM.

And the GI50 [53]?
Its GI50 is 2.55 µM.

What about the TGI [53] of the same molecule?
Its TGI is 8.92 µM.

And the GI50 [54]?
The GI50 was 5.05 µM.

What about the TGI [54] of the same molecule?
The TGI was 17.3 µM.

And the GI50 [55]?
Its GI50 is 2.87 µM.

And the TGI [55]?
The TGI was 10.4 µM.

What about the GI50 [56] of the same molecule?
The GI50 was 4.1 µM.

And the TGI [56]?
The TGI was 16.8 µM.

And the GI50 [57]?
Its GI50 is 2.91 µM.

What about the TGI [57] of the same molecule?
The TGI was 12.4 µM.

And the GI50 [58]?
The GI50 was 3.78 µM.

And the TGI [58]?
The TGI was 15 µM.
